# In PubChem BioAssay (NCI):
# “And” between values parts separate entries of the source, which are not always exact repeats. Identical values can stand only once.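 Cells were grown in 96-well plates and exposed to each compound for 48 hours at five concentrations; endpoints were interpolated linearly between bracketing concentrations, or set to the highest concentration if not reached. GI50 marks 50% less growth. TGI marks complete inhibition of growth.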
# What was measured:
# Assay in all cases: growth of human tumour cells (NCI), 48 h
# PC-3 prostate = system: PC-3 prostate
# ACHN renal = system: ACHN renal
# MOLT-4 leukemia = system: MOLT-4 leukemia
# SK-MEL-2 melanoma = system: SK-MEL-2 melanoma
# HL-60(TB) leukemia = system: HL-60(TB) leukemia
# EKVX NSCLC = system: EKVX NSCLC
# HCC-2998 colon = system: HCC-2998 colon
# DU-145 prostate = system: DU-145 prostate
# SNB-75 CNS = system: SNB-75 CNS
# A498 renal = system: A498 renal
SMILES,TGI (PC-3 prostate),TGI (ACHN renal),TGI (MOLT-4 leukemia),TGI (SK-MEL-2 melanoma),TGI (HL-60(TB) leukemia),TGI (EKVX NSCLC),TGI (HCC-2998 colon),TGI (DU-145 prostate),TGI (SNB-75 CNS),TGI (A498 renal),GI50 (PC-3 prostate),GI50 (ACHN renal),GI50 (MOLT-4 leukemia),GI50 (SK-MEL-2 melanoma),GI50 (HL-60(TB) leukemia),GI50 (EKVX NSCLC),GI50 (HCC-2998 colon),GI50 (DU-145 prostate),GI50 (SNB-75 CNS),GI50 (A498 renal)
CCc1nc2ccc(N=Nc3c(O)ccc4ccccc34)cc2[nH]1,37.5 µM,31.5 µM,81.1 µM,37.9 µM,29.8 µM,36.1 µM,29.7 µM,31.2 µM,37.5 µM,50.6 µM,,,,,,,,,,
Nc1nc(/C=C\c2ccccc2)nc(N2CCN(c3ccccc3)CC2)n1,> 100 µM,> 100 µM,> 100 µM,91.7 µM,66.3 µM,> 100 µM,41.5 µM,> 100 µM,69.4 µM,87.9 µM,27.9 µM,29.2 µM,36.8 µM,32.5 µM,25.4 µM,59.1 µM,17.9 µM,39.5 µM,22.2 µM,35.1 µM
Cc1cc(-c2cc(O)ccc2Cl)cc2nnc(Nc3ccc(OCCN4CCCC4)cc3)nc12,1.54 µM,2.83 µM,0.634 µM,3.64 µM,0.627 µM,3.27 µM,3.66 µM,0.419 µM,2.22 µM,2.92 µM,0.424 µM,1.43 µM,0.251 µM,1.7 µM,0.305 µM,1.57 µM,1.94 µM,0.206 µM,0.824 µM,1.41 µM
CC(=O)NNc1nc(C)c(C(/C=C/c2ccccc2O)=N/N=C(N)N)s1,> 100 µM,> 100 µM,> 100 µM,> 100 µM,> 100 µM,> 100 µM,> 100 µM,> 100 µM,> 100 µM,> 100 µM,,,,,,,,,,
C=CCC(N[C@H](CO)c1ccccc1)c1cn(Cc2ccccc2Cl)c(=O)n(Cc2ccccc2Cl)c1=O (some centres not stated),26.7 µM,39 µM,,57.5 µM,34 µM,96.4 µM,27.3 µM,95.5 µM,64.8 µM,39.1 µM,4.03 µM,4.78 µM,,18.9 µM,5.87 µM,16.1 µM,10.7 µM,23.5 µM,16.6 µM,11 µM
O=C1/C(=C/c2ccc(Cl)cc2)CNC/C1=C\c1ccc(Cl)cc1,21.2 µM,4.17 µM and 7.08 µM,,28.4 µM and 43.2 µM,,21.2 µM and 6.75 µM,4 µM and 3.36 µM,7.57 µM,10.3 µM and > 29.5 µM,5.01 µM and 25.6 µM,,,,4.92 µM and 14.5 µM,2.42 µM and 9.41 µM,5.74 µM and 2.29 µM,,,,
CC1(C)CCCC(C)(C2CCC3(C)C2C(O)CC2C4(C)CCC(O)C(C)(C)C4CCC23C)O1 (configuration not stated),> 100 µM,> 100 µM,> 100 µM,> 100 µM,> 100 µM,> 100 µM,> 100 µM,> 100 µM,> 100 µM,> 100 µM,,,,,,,,,,
COC(=O)c1oc2c(C(=O)/C=C/c3ccc(OC)cc3)c(OCCN(C)C)ccc2c1C,21.7 µM,19.5 µM,7.47 µM,28.8 µM,6.01 µM,19 µM,24.6 µM,10.7 µM,22.2 µM,22.6 µM,8.43 µM,5.9 µM,2.59 µM,12.4 µM,1.88 µM,6.4 µM,10.2 µM,2.82 µM,9.94 µM,10.1 µM
CCCCCC/C=C\CCCCCCCCCC1=C(CN2CCN(C)CC2)C(=O)C=C(OC)C1=O,10.5 µM,13 µM,1.65 µM,18.7 µM,2.97 µM,27.9 µM,23.8 µM,26.2 µM,16.6 µM,32.6 µM,,,,,,,,,,
Clc1ccccc1-c1nnc2c(Cc3ccccc3)nc3ccccc3n12,> 100 µM,> 100 µM,> 100 µM,> 100 µM,> 100 µM,> 100 µM,> 100 µM,> 100 µM,40.3 µM,> 100 µM,4.66 µM,39.4 µM,9.04 µM,59.4 µM,32.5 µM,12.7 µM,59.9 µM,55.1 µM,3.78 µM,1.21 µM
CC(=O)C1=C(O)C=C2Oc3c(C(=O)/C=C/c4cc(Cl)cc(Cl)c4)c(O)c(C)c(O)c3[C@]2(C)C1=O,2.04 µM,14.2 µM,1.33 µM,0.924 µM,0.87 µM,2.27 µM,2.69 µM,5.58 µM,4.06 µM,0.5 µM,0.537 µM,0.513 µM,0.409 µM,0.365 µM,0.371 µM,0.444 µM,0.667 µM,0.622 µM,1.66 µM,0.259 µM
CCN(CC)CCCC(C)N/C(=C1\C(=O)NC(=O)\C1=C(/NC(C)CCCN(CC)CC)c1cccc(OC)c1)c1cccc(OC)c1 (configuration not stated),2.56 µM,2.16 µM,2.09 µM,1.8 µM,2.49 µM,,1.61 µM,4.5 µM,1.67 µM,5.58 µM,0.877 µM,0.393 µM,0.312 µM,0.947 µM,0.968 µM,,0.845 µM,1.02 µM,0.735 µM,0.791 µM
Oc1c(Cl)cc(Cl)c2ccc(Cn3cc(-c4ccc(C(F)(F)F)cc4)nn3)nc12,11.1 µM,2.67 µM,8.8 µM,7.65 µM,3.65 µM,19.5 µM,20.3 µM,3.33 µM,10.8 µM,13.8 µM,3 µM,1.35 µM,0.825 µM,2.67 µM,0.685 µM,5.8 µM,5.86 µM,1.7 µM,1.74 µM,3.57 µM
CCCCCCCCCCCCOC1C(CNC(=O)C2OC3OC(C)(C)OC3C2NC(=O)CN2CCN(c3ccc(OC)cc3)CC2)OC2OC(C)(C)OC21 (configuration not stated),9.79 µM,11.2 µM,10.8 µM,23.9 µM,4.44 µM,17 µM,11 µM,15.6 µM,17.4 µM,20.3 µM,2.82 µM,3.59 µM,3.12 µM,11.7 µM,2.13 µM,5.46 µM,3.4 µM,4.56 µM,4.46 µM,7.96 µM
